Data taken from patent publication US7851142B2, “Method of reducing glycolysis in platelet concentrates using L-carnitine, alkanoyl carnitines and salts thereof” (priority 1997, dated 2010).
“Also recorded” adds a separate entry of the source.

Columns and labels:
[1] = system: prestorage-leuko-reduced platelet concentrates; experiment: Extended storage of prestorage-leuko-reduced random platelets (glycolysis and platelet quality tests); format: cell-based, human; settings: 5 mM L-Carnitine, stored seven or eight days at 22° C.
Protocol: Study Deign: Two ABO identical prestorage-leuko-reduced platelet concentrates produced by in-line filtration of platelet rich plasma (MedSep Inc., Corvina, Calif.) were pooled, then equally divided into two CLX (MedSep) containers. Either L-Carnitine (final concentration 5 mM) or saline was added to one bag of each pair of platelets. Platelets were stored for either seven or eight days at 22° C. on a flatbed agitator, then tested. Tests performed were pH, platelet count, supernatant glucose and lactate, surface p-selectin expression by flow cytometry, extent of shape change (ESC) and hypotonic shock response (HSR). Glucose consumption and lactate production were calculated as mM/10^12 platelets/day. Data were analyzed using paired t-tests.

[2] = system: coagulase negative staphylococci; experiment: Bacterial growth in spiked extended-storage platelet concentrates; format: cell-based; settings: for Bacterial growth: platelet concentrate
Protocol: Study Methods: Two ABO identical prestorage-leuko-reduced platelet concentrates produced by in line filtration of platelet rich plasma (MedSep Corp. Covina, Calif.) were pooled, then equally divided into two CLX® (MedSep) bags. Either LC, to a final concentration of 5 mM, or saline (control) was added to one of each pair. Each container was spiked with 1 ml of a coagulase negative staphylococcal suspension on Day 0 to a final concentration between 1-48 CFU/mL. Samples were removed from each container aseptically on Day 3, Day 6 and either Day 7 or Day 8 for colony count. Data were analyzed by paired t tests.

[3] = system: transfused stored RBC; experiment: In vivo post-transfusion measurements of 42-day stored RBC (51Cr/99Tc labeling); parameters: species or system human; settings: RBC stored 42 days with 5 mM LC, reinfused into donor
Text: Subjects. The subject population was male or female research subjects between the ages of 18 to 65 years with no known mental or physical disability and taking no drugs that might affect RBC viability. Individuals were recruited who fulfilled the conventional allogeneic donor criteria as listed in the Code of Federal Register, Chapter 2, the Standards of the American Association of Blood Banks, and the Blood Services Directives of the American National Red Cross. The study was approved by the Institutional Review Board of the Medical College of Hampton Roads and the subjects gave informed consent prior to participation in the study.
Each donor donated on two different occasions separated by 72 days, and was randomized to either the test or control arm on the first donation.
In vivo Post-transfusion Measurements. After 42 days of storage, a sample was withdrawn and the stored cells labeled with Cr using standard methods. At the same time, to determine RBC mass, a fresh sample was collected from the donor for RBC labeling with 99 Tc. After labeling, 15 μCi ^51Cr-labeled stored cells and 15 μCi ^99Tc-labeled fresh cells were mixed and simultaneously infused. Blood samples (5 mL) were taken after the infusion at various time intervals for up to 35 days to calculate 24-hour % recovery and survival. The 24-hour % recovery was determined using either the single label method where log-linear regression of the radioactivity levels of samples taken at 5, 7.5, 10, and 15 min. was used to determine 0 time level, or by the double label method using donor RBC mass as determined by the ^99Tc measurement.
Circulating lifespan of the transfused surviving Cr-labeled RBC was determined by samples taken at 24 hours and then twice weekly for up to 5 weeks. The radioactivity levels were corrected for a constant 1% elution per day. The data were fitted to a linear function with post-transfusion days as independent variable (x-axis) and the corrected Cr counts as dependent variable (y-axis). The lifespan of the RBC was then taken as the intersection of the fitted line with the x-axis. […]

[4] = system: packed RBC (red cell concentrates); experiment: In vitro measurements on red cell concentrates stored in AS-3 with or without LC; format: cell-based, human; settings: AS-3 with 5 mM LC
Protocol: Blood storage system. Standard CP2D/AS-3 system (Miles, Inc.) Using polyvinyl chloride (PVC) plastic with diethyl-(n)hexyl-phthalate (DEHP) as plasticizer was used. For each test unit, 245 mg LC (in 1.1 mL pure, pyrogen-free solution in a sterilized glass bottle) was added to the container holding the AS-3 additive solution to give a final concentration of 5 mM. For the control units, 1.1 mL 0.9% NaCl was added to the AS-3 solution using the same conditions. Addition of LC or saline to the bags was performed by injecting through a sampling site coupler with a syringe. This was done in a laminar flow hood under UV light.
Donation & Processing. Standard phlebotomy and blood-drawing methods were used with collection of approximately 450±50 mL whole blood. The whole blood unit was held between 4-8 hours at room temperature before processing. The unit was centrifuged using standard conditions and, after centrifugation, the supernatant plasma was expressed off, and the sedimented packed RBC resuspended either in the standard AS-3 solution (control) or the carnitine-containing AS-3 solution (test). The suspended RBC units were stored at 4° C. for 42 days.
In Vitro Measurements: Measurements performed on pre-(0 day) and post-(42-day) samples included RBC ATP levels; total and supernatant hemoglobin; hematocrit (Hct); RBC, WBC, and platelet counts; RBC osmotic fragility; RBC morphology; lactate and glucose levels; supernatant potassium levels. These were performed using standard procedures as described previously, Heaton et al., Vox Sang 57:37-42 (1989).
Statistical analysis. Paired t-test or routine non-parametric statistical analysis was performed on data from the in vivo and in vitro testing of the units to determine if there were any statistically significant differences (1-tail) in the means between the test and control units. Statistical significance was considered at a p value less than 0.05.

[5] = system: stored RBC; experiment: Membrane complex lipid reacylation in stored RBC ([1-14C]palmitic acid incorporation); format: cell-based, human
Protocol: Analysis of membrane complex lipid reacylation in stored RBC. Blood sample was withdrawn from stored RCC unit through a sampling site coupler with a syringe, and the sample processed immediately. This was done in a laminar flow hood under UV light. All the manipulations were conducted at 0-5° C. unless noted. RBC were washed two times with 4 vol. of cold 0.9% NaCl. Isolated RBC were once again washed with incubation buffer (NaCl 120 mM, KCl 5 mM, MgSO4 1 mM, NaH2PO4 1 mM, saccharose 40 mM, 5 mM glucose, Tris-HCl 10 mM, at pH 7.4) and resuspended in the same buffer at a final hematocrit of 5%. A Rotabath shaking bath at 37° C. was used for the incubations. RBC were incubated with the radioactive palmitic acid (10 μM) complexed to fatty acid free BSA (1.65 mg/ml), Incubations were ended by washing cells once with cold incubation buffer, three times with fatty acid free BSA 1% in incubation buffer, and finally once again with incubation buffer. RBC lipids were extracted from intact cells with the Rose & Oaklander procedure, J. Lipid Res. 6: 428-431 (1965). In order to prevent lipid oxidation, 0.1% butylated hydroxytoluene was added to the lipid extracts. Aliquots of the lipid extract were used for determination of lipid phosphorus content, and analyzed by two dimensional thin layer chromatography. Briefly, the chromatograms were developed using chloroform-methanol-28% ammonia (65:25:5) in the first dimension. The chromatograms were then developed using chloroform-acetone-methanol-acetic acid-water (6:8:2:2:1) in the second dimension. Phosphatidylcholine (PC), a phosphatidylethanolamine (PE), and phosphatidylserine were visualized by brief exposure of the plates to iodine and identified using standards as a reference. Individual phospholipid spots were scraped off into vials containing scintillation fluid and radioactivity was determined by liquid scintillation counting. The identification and analysis of radioactive PLC was carried out as recently described, Arduini et al., J. Biol. Chem. 267: 12673-81 (1992). Counting efficiency was evaluated by an external standard. […]

[6] = system: standard (non-leuko-reduced) platelet concentrates; settings: extended storage (>5 days; five-ten days); cited from earlier work

C[N+](C)(C)C[C@H](O)CC(=O)[O-] [L-Carnitine, L-carnitine]
ESC (extent of shape change) [1]: 12 ± 4%
Glucose concentration [1]: 1.13 ± 0.2
HSR (hypotonic shock response) [1]: 50 ± 22%
Lactate production [1]: 1.50 ± 0.2 mM/10^12 platelets/day
pH [1]: 7.09 ± 0.1
P-selectin (% positive) ([1]; flow cytometry): 69 ± 9%
Bacterial growth ([2]; Day 0, 5 mM L-Carnitine): 1.12 ± 0.7 Log CFU/ml
Bacterial growth ([2]; Day 3, 5 mM L-Carnitine): 3.04 ± 0.7 Log CFU/ml
Bacterial growth ([2]; Day 6, 5 mM L-Carnitine): 3.88 ± 1.0 Log CFU/ml
Growth relative to controls ([2]; Day 7/8, 5 mM L-Carnitine): 33%
Bacterial growth ([2]; Day 7/8, 5 mM L-Carnitine): 4.60 ± 1.5 Log CFU/ml
24 Hr % Recovery (single label) [3]: 84.0 ± 4.4%
24 Hr Recovery (double label) [3]: 83.9 ± 5.0
Survival (circulating lifespan of infused stored RBC) [3]: 96.1 ± 11.2 days
ATP ([4]; post-storage, 42 days at 4° C.): 3.24 ± 0.38 μmol/g Hb
Glucose ([4]; post-storage, 42 days at 4° C.): 193 ± 40 mg/dL
Hemolysis ([4]; post-storage, 42 days at 4° C.): 0.30 ± 0.22 %
Lactate ([4]; post-storage, 42 days at 4° C.): 199 ± 37 mg/dL
Morphological Score ([4]; post-storage, 42 days at 4° C.): 68 ± 15
Osmotic Fragility ([4]; post-storage, 42 days at 4° C.): 50 ± 4%
Supernatant K+ ([4]; post-storage, 42 days at 4° C.): 60 ± 3 mEq/L
pH ([4]; post-storage, 42 days at 4° C.): 6.32 ± 0.04
ATP ([4]; pre-storage (0 day)): 4.3 ± 0.4 μmol/g Hb
Osmotic Fragility ([4]; pre-storage (0 day)): 49 ± 4%
Supernatant Hb ([4]; pre-storage (0 day)): 26 ± 8 mg/dL
Supernatant K+ ([4]; pre-storage (0 day)): 2.2 ± 0.3 mEq/L
Radioactive palmitate incorporation into membrane PE ([5]; RBC stored in LC-containing AS-3, over storage up to 42 days): sudden increase of PE reacylation toward the end of the storage
Radioactive palmitate incorporated into PLC (palmitoyl-L-carnitine) ([5]; RBC stored in LC-containing AS-3, over storage up to 42 days, listed as LC): initial increase (with a nadir at the 3 week) followed by a rapid decrease; also recorded: greater than that found in red cells stored without LC
Radioactive palmitate incorporation into membrane PC ([5]; RBC stored in LC-containing AS-3 vs AS-3 alone, over storage): no differences were observed between the two red cell preparations
Effect on glycolysis in stored platelet concentrates [6]: reduces glycosis; also recorded: reduces glycolysis
